Experimental data: ChEMBL document CHEMBL1201862, “PubChem BioAssay data set” (2004)
Blank lines part the entries; values can stand above or below the molecule they belong to. Calls of active or inactive are those of the source.

Key:
[1] = target: Galanin receptor type 3 (Homo sapiens, UniProt O60755); assay: Fluorescence-based cell-based primary high throughput dose response assay to identify antagonists of the Galanin Receptor 3 (GalR3).; format: functional
[2] = cells; format: functional, cell-based; conditions: HEK-CNG
[3] = Shn3 3'UTR reporter inhibitors, dose response, cell-based, Clone20 osteoblasts, firefly luciferase, cherry-picked (AID 624132); format: functional;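 also: firefly luciferase luminescence from reporter carrying the Shn3 3'UTR in osteoblasts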
[4] = HepG2 cell cytotoxicity, dose response, cytotoxicity control for Shn3 inhibitor project, CellTiter-Glo, cherry-picked (AID 624134); format: functional, cell-based
[5] = control 3'UTR Renilla luciferase suppression, dose response, counter-screen for Shn3 inhibitor project, cell-based, Clone20-Shn3RL, cherry-picked (AID 624133); format: functional
[6] = target: Hepatocyte nuclear factor 4-alpha (Homo sapiens, UniProt P41235); format: functional, cell-based;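 also: biochemical luminescence-based dose-response counterscreen measuring inhibition of HNF4 dimerization, run alongside a screen for blockers of ABHD5–perilipin-5 interaction; split luciferase complementation of HNF4 fusion proteins in cell lysate measuring dimerization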
[7] = target: Paired box protein Pax-8 (Homo sapiens, UniProt Q06710); assay: inhibitors of PAX8-driven TPO luciferase reporter, dose response, RMG-I cells, cherry-pick (AID 687027); format: functional, cell-based;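 also: luciferase reporter driven by Pax8 target thyroperoxidase promoter measured by SteadyGlo luminescence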
[8] = inhibitors of PGC1a acetylation in cells, dose response, cell-based, cherry-picked samples (AID 720514); format: functional;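 also: potency may reflect raised or lowered acetylation signal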
[9] = target: Caspase-6 (Homo sapiens, UniProt P55212); assay: human caspase-6 inhibitors, dose response, biochemical, VEID-R110 fluorescence, cherry-pick (AID 720632)
[10] = HepG2 cell cytotoxicity, dose response, cytotoxicity control, ATP luminescence, cherry-pick, set 6 (AID 1053125); format: functional, cell-based
[11] = cells; conditions: HEK293
[12] = growth suppression of PTEN-null colon cells, dose response, cell-based, HCT116 PTEN knockout (AID 1047); format: functional;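 also: HCT116 colon tumor cells with PTEN knocked out; cells exposed to compound for 60 hours before readout; potency for loss of cell viability measured by luminescence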
[13] = growth suppression of beta-catenin-knockout colon cells, dose response, cell-based, HCT116, human colon tumor (AID 1045); format: functional;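 also: HCT116 colon tumor cells with beta catenin knocked out; cells exposed to compound for 60 hours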
[14] = target: T1, Microphthalmia-associated transcription factor (Homo sapiens, UniProt O75030); assay: TRPM1 promoter luciferase signal decrease, dose response, MITF inhibitor project, cell-based, SK-MEL-5, cherry-picked, set 3 (AID 493073); format: functional
T1 sequence (O75030 whole entry): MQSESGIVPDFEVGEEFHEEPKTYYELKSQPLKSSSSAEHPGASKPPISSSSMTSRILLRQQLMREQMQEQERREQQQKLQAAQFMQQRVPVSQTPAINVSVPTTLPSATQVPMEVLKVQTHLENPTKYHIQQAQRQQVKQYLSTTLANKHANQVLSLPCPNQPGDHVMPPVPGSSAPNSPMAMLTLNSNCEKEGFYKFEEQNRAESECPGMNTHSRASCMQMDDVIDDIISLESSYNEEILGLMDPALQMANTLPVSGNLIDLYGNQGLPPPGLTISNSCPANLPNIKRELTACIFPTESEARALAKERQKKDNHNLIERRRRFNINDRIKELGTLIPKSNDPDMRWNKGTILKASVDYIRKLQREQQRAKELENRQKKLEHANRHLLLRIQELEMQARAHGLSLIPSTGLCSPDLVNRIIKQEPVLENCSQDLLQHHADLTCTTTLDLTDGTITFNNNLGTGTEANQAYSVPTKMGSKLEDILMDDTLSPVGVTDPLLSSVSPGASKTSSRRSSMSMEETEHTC

[15] = system: INS1; assay: beta cell apoptosis inhibitors, cytokine rescue, dose response, luminescence, retest (AID 449756); format: functional, cell-based; conditions: Rattus norvegicus;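 also: cell death triggered by IL-1 beta plus TNF-alpha plus IFN-gamma mixture; protective hits raise ATP signal compared with cytokine alone wells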
[16] = A375 melanoma cell viability loss, dose response, counter-screen for MITF inhibitor project, CellTiter-Glo luminescence, dry powder, set 4 (AID 624364); format: functional, cell-based; conditions: A-375;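 also: A375 melanoma cells are MITF independent so this is a counter screen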
[17] = A375 melanoma cell cytotoxicity, dose response, counter-screen for MITF inhibitor project, CellTiter-Glo luminescence, dry powder, set 2 (AID 624489); format: functional, cell-based; conditions: A-375;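 also: actives are compounds lowering A375 viability meaning general cytotoxicity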
[18] = cytotoxicity in HPDE-C7 cells, cell-based, fluorescence, HTS (AID 430); format: functional; conditions: Homo sapiens
[19] = cytotoxicity in KRAS-transformed pancreatic duct cells, primary screen, cell-based, fluorescence, HTS (AID 431); format: functional; conditions: Homo sapiens;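 also: cell line used: HPDE-C7K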
[20] = ADAM10 inhibitors, peptide cleavage, dose response, biochemical, QFRET (AID 743254);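 also: ADAM10 enzyme with the DM2 quenched FRET peptide as substrate; EDANS fluorescence gain as the protease cuts the substrate; inhibitor potency against ADAM10 proteolytic activity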
[21] = target: Disintegrin and metalloproteinase domain-containing protein 17 (Homo sapiens, UniProt P78536); assay: ADAM17 protease inhibitors, dose response, counter-screen for ADAM10 exosite inhibitor project, biochemical, quenched FRET substrate (AID 743253)
[22] = system: HEK293; assay: NOD1 signaling inhibitors, primary screen, cell-based, luminescence, uHTS (AID 1578); format: functional; conditions: Homo sapiens
[23] = system: HEK293; assay: cells; format: functional, cell-based; conditions: Homo sapiens
[24] = system: HEK293; assay: cells; format: functional, cell-based; conditions: Homo sapiens; remark: listed apart in the source
[25] = system: HEK293; assay: NOD2 signaling inhibitors in MDP-stimulated cells, cell-based, uHTS, luminescence (AID 2001); format: functional; conditions: Homo sapiens
[26] = target: COUP transcription factor 2 (Homo sapiens, UniProt P24468); assay: Luminescence-based cell-based high throughput dose response assay to identify inhibitors of COUP-TFII (NR2F2).; format: functional;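 also: HEK293 cells transiently cotransfected with COUP-TFII expression vector and reporter; luciferase reporter luminescence driven by COUP-TFII from the pX2-168 reporter plasmid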
[27] = target: T2, Sentrin-specific protease 8 (Homo sapiens, UniProt Q96LD8); format: functional
T2 sequence (Q96LD8 whole entry): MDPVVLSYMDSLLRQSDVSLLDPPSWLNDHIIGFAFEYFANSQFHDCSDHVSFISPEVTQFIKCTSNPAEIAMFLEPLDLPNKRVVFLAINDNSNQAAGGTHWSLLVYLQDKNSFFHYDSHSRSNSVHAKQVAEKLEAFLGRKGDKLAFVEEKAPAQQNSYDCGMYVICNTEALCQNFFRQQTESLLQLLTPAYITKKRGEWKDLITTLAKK

[28] = target: T2, Sentrin-specific protease 8; format: functional; remark: listed apart in the source
[29] = target: Tyrosyl-DNA phosphodiesterase 2 (Homo sapiens, UniProt O95551); assay: human TDP2 enzyme inhibitors, dose response, biochemical, epi absorbance, IC50 (AID 743297)
Chain of Tyrosyl-DNA phosphodiesterase 2 (O95551 whole entry): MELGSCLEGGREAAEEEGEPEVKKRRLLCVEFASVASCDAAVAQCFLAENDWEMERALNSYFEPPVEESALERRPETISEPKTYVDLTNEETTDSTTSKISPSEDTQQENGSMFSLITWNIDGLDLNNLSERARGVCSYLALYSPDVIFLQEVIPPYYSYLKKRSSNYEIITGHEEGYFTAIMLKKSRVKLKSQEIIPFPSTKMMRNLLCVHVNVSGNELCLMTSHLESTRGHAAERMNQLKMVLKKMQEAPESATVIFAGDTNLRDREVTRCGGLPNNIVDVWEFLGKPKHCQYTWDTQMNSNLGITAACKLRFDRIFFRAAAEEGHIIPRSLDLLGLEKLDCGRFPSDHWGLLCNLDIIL

Chain of Caspase-6 (P55212 24-179 limits assumed): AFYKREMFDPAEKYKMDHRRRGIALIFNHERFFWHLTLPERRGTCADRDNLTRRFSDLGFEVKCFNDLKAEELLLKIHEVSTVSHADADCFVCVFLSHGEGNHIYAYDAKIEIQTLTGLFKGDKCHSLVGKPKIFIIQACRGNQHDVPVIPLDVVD
Chain of Caspase-6 (P55212 194-293 limits assumed): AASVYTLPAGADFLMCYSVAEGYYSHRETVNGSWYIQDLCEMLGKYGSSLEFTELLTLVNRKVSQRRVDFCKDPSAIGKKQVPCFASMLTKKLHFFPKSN
Chain of Galanin receptor type 3 (O60755 whole entry): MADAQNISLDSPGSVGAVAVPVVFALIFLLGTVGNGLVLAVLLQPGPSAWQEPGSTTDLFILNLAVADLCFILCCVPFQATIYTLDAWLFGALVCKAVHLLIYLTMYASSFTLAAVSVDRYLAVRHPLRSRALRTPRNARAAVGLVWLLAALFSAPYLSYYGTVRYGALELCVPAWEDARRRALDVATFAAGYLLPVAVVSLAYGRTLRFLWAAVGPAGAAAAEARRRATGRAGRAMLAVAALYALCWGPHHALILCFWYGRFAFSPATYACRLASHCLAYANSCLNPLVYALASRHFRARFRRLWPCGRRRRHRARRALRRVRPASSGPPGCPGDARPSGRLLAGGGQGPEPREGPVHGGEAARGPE
Chain of COUP transcription factor 2 (P24468 whole entry): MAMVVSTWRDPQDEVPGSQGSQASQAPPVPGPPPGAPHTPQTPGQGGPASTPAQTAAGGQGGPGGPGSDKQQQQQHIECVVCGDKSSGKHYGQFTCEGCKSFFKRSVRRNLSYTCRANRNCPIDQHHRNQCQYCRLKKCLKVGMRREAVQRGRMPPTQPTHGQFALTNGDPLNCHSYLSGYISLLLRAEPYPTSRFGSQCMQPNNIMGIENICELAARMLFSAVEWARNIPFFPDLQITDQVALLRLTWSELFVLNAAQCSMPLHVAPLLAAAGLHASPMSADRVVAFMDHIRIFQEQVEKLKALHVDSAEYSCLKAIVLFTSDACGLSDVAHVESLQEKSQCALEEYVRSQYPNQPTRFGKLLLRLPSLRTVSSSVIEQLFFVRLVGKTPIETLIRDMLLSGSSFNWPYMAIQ
Chain of Hepatocyte nuclear factor 4-alpha (P41235 whole entry, the tested form may be a part): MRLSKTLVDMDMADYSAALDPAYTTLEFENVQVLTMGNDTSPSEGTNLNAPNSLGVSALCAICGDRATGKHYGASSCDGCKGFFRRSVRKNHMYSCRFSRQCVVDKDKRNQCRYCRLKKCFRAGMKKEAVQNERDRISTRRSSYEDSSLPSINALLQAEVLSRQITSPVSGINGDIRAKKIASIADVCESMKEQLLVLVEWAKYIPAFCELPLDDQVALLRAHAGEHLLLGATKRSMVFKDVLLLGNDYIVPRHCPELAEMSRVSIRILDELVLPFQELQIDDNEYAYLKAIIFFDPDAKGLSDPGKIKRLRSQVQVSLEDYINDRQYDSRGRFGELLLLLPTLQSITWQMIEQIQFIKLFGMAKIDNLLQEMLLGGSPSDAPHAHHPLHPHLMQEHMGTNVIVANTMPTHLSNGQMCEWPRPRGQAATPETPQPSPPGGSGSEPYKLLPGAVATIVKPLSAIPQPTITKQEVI
Chain of Disintegrin and metalloproteinase domain-containing protein 17 (P78536 whole entry, the tested form may be a part): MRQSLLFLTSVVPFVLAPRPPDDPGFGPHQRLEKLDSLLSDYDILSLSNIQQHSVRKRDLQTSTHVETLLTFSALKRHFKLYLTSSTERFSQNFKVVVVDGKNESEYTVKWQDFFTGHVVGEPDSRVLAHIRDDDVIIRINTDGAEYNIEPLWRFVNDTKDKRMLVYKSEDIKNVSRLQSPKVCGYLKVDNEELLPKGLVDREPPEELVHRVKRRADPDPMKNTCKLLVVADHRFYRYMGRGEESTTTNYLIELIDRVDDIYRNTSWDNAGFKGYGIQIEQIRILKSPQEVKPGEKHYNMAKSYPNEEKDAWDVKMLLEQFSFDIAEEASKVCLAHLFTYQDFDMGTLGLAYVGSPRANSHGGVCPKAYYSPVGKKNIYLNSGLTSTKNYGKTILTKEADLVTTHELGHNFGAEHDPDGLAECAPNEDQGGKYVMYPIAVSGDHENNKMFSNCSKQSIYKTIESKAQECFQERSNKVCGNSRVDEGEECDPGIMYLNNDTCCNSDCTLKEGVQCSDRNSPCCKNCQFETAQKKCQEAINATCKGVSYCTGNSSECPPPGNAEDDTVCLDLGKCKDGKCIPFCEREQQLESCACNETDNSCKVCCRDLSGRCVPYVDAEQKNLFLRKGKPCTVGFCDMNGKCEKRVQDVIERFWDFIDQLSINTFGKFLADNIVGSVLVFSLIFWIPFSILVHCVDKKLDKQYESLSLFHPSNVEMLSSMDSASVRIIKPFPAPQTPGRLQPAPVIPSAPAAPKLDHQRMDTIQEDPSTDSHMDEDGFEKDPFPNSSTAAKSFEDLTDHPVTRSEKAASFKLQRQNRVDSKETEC
Chain of Paired box protein Pax-8 (Q06710 whole entry): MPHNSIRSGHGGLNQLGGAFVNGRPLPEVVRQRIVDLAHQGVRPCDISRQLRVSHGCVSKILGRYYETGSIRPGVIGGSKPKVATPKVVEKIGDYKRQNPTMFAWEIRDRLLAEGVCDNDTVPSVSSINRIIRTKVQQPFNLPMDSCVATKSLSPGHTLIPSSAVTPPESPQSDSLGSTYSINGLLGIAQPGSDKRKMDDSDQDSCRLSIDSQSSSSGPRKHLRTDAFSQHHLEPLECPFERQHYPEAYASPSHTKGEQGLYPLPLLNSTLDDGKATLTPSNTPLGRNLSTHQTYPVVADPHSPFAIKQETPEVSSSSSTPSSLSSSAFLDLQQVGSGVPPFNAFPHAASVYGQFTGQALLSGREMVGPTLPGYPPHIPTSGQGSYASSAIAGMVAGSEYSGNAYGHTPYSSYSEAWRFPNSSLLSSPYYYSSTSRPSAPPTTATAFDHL

SMILES: CCOc1nc(C#N)nc(N2CCCCC2)n1
IC50 [1]: 1.09 µM (active) | EC50 [2]: > 29.9 µM (inactive)

SMILES: C#CCN(C[C@@H]1[C@@H](OC(=O)NCC2CCCCC2)[C@@H](OC(=O)NCC2CCCCC2)Cn2c(=O)ccc(=O)n21)S(=O)(=O)c1ccc(C)cc1
AC50 [3]: 2.49 µM (active) | AC50 [4]: 6.53 µM (active) | AC50 [5]: 3.96 µM (active) | IC50 [6]: 29.3 µM (inactive) | AC50 [7]: 3.03 µM (active) | AC50 [8]: 1.65 µM (active)

AC50 [9]: 1.51 µM (active)
SMILES: O=C(O)CCCC(=O)OCCCc1cc2ccccc2c(=O)o1

SMILES: S=C(NCC1CCCO1)N1CCN(Cc2ccccc2Cl)CC1 (stereo not given)
AC50 [10]: 38.4 µM (active) | AC50 [11]: > 24 µM (inactive)

SMILES: Fc1ccc(N=C(S)NNc2ncc(C(F)(F)F)cc2Cl)c(F)c1
EC50 [2]: > 29.9 µM (inactive)

SMILES: CCN1c2ccccc2NC2N=C(OC)C(c3ccccc3)C21 (stereo not given)
EC50 [12]: 8.12 µM (active) | EC50 [13]: 7.49 µM (active) | AC50 [14]: 7.51 µM (active) | AC50 [15]: 1.26 µM (active) | AC50 [16]: 50.4 µM (active) | AC50 [17]: 29.7 µM (active)

SMILES: C=C(C)COc1ccc(-c2n[nH]cc2-c2ccccc2OC)c(O)c1
EC50 [18]: 13.7 µM (active) | EC50 [19]: 11.3 µM (active) | IC50 [20]: 10.6 µM (inactive) | IC50 [21]: > 69.5 µM (inactive)

SMILES: CCN(CC)S(=O)(=O)c1cccc(NC(=O)CNc2cccc(S(=O)(=O)N3CCCC3)c2)c1
EC50 [22]: 0.56 µM (active) | IC50 [23]: 2.55 µM (active) | IC50 [24]: 14.6 µM (active) | IC50 [25]: 3.47 µM (active) | AC50 [15]: 3.73 µM (active) | AC50 [3]: 0.317 µM (active) | AC50 [4]: 1.11 µM (active) | AC50 [5]: 33.8 µM (active) | IC50 [26]: 3.33 µM (active)

IC50 [29]: > 128 µM (inactive)
SMILES: Cc1ccc(C(=O)Nc2c(-c3ccc(Cl)cc3)n[nH]c2O)cc1
IC50 [27]: 39.9 µM (active) | IC50 [28]: 63.5 µM (inactive)

AC50 [9]: 9.36 µM (active)
SMILES: Cc1cccc(NC2=C(NCCO)C(=O)c3ccccc3C2=O)c1
